The results in this text go back to PubChem BioAssay (NCI).

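Cells were grown in 96-well plates and exposed to each compound for 48 hours at five concentrations; endpoints were interpolated linearly between bracketing concentrations, or set to the highest concentration if not reached. TGI denotes the concentration required for complete inhibition of growth.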 Where only a bound is given, the exact number is not on record here.

Some test systems named below: A549 NSCLC; DU-145 prostate; HOP-62 NSCLC; HS 578T breast; IGROV1 ovarian; M14 melanoma; MCF7 breast; MDA-MB-435; MDA-N; NCI/ADR-RES ovarian; OVCAR-4 ovarian; OVCAR-5 ovarian; OVCAR-8 ovarian; PC-3 prostate; SK-MEL-2 melanoma; SK-MEL-28 melanoma; SNB-75 CNS; SR leukemia; U251 CNS; RPMI-8226 leukemia.
Common to all, as to assay: DTP human tumour cell line panel, 48 h

Broadly, the TGI is the concentration at which net growth stops. With `CC(O)(/C=C/c1ccccc1)P(=O)(O)c1ccccc1` (stereo not drawn), the TGI in the test with A549 NSCLC, in the test with DU-145 prostate, in the test with HOP-62 NSCLC, in the test on HS 578T breast, in the test with IGROV1 ovarian and in the test with M14 melanoma was above 100 µM throughout. The TGI in the test on MCF7 breast, in the test on MDA-MB-435, with MDA-N, in the test with NCI/ADR-RES ovarian, with OVCAR-4 ovarian and in the test on OVCAR-5 ovarian was above 100 µM each time. In addition, the TGI in the test with OVCAR-8 ovarian, in the test with PC-3 prostate, in the test on SK-MEL-2 melanoma, in the test with SK-MEL-28 melanoma, in the test with SNB-75 CNS and in the test with SR leukemia was above 100 µM each time. In the test on U251 CNS, this compound showed a TGI above 100 µM.

On to `CC(=O)CCC(=O)C(=[N+]=[N-])S(=O)(=O)c1ccccc1`, for which the TGI in the test with A549 NSCLC, with DU-145 prostate, with HOP-62 NSCLC, in the test with HS 578T breast, with IGROV1 ovarian and in the test with M14 melanoma was above 100 µM throughout. Besides, the TGI in the test with MCF7 breast, in the test with MDA-MB-435, in the test on MDA-N, with NCI/ADR-RES ovarian, with OVCAR-5 ovarian and in the test on OVCAR-8 ovarian was above 100 µM each time. Further, the TGI in the test on PC-3 prostate, with RPMI-8226 leukemia, in the test on SK-MEL-2 melanoma, in the test with SK-MEL-28 melanoma, with SNB-75 CNS and with SR leukemia was above 100 µM in each case. This compound also had a TGI in the test on U251 CNS above 100 µM.

`c1ccc(-c2cs[s+]c2)cc1`: the TGI with A549 NSCLC, in the test on DU-145 prostate, in the test with HOP-62 NSCLC, in the test with HS 578T breast, in the test with IGROV1 ovarian and with M14 melanoma was above 100 µM each time. The TGI in the test with MCF7 breast, in the test on MDA-MB-435, in the test on MDA-N, with NCI/ADR-RES ovarian, with OVCAR-4 ovarian and in the test on OVCAR-5 ovarian was above 100 µM each time. The TGI in the test on OVCAR-8 ovarian, in the test on PC-3 prostate, with SK-MEL-28 melanoma, in the test on SNB-75 CNS, in the test with SR leukemia and with U251 CNS was above 100 µM throughout.

`CC(=O)O[C@@H]1[C@H]2[C@@H](OC(=O)c3ccccc3)[C@@H](C)C[C@]2(O)[C@H](OC(C)=O)[C@@]2(C)[C@@H]3CC(C)(C)C(=O)[C@]3(OC(C)=O)C[C@@]12C`: the TGI with DU-145 prostate, with HOP-62 NSCLC, in the test with HS 578T breast, in the test on IGROV1 ovarian, in the test with M14 melanoma and with MCF7 breast was above 25 µM each time. Besides, the TGI with MDA-MB-435, with MDA-N, with NCI/ADR-RES ovarian, with OVCAR-4 ovarian, in the test on OVCAR-5 ovarian and with OVCAR-8 ovarian was above 25 µM throughout. For the same compound, the concentration for total growth inhibition (TGI) with PC-3 prostate, in the test with SK-MEL-2 melanoma, in the test on SNB-75 CNS, with SR leukemia and in the test with U251 CNS was above 25 µM in each case.

As for `COC(=O)C1CC=C(SC(=O)c2ccccc2)N1C(=O)c1ccccc1` (stereo not drawn), the TGI with A549 NSCLC, in the test on DU-145 prostate, in the test with HOP-62 NSCLC, with HS 578T breast, in the test with IGROV1 ovarian and in the test with M14 melanoma was above 100 µM each time. Also, the TGI in the test on MCF7 breast, in the test on MDA-MB-435, with MDA-N, in the test with NCI/ADR-RES ovarian, in the test on OVCAR-4 ovarian and in the test with OVCAR-5 ovarian was above 100 µM in each case. In addition, the TGI in the test with OVCAR-8 ovarian, in the test on PC-3 prostate, in the test on RPMI-8226 leukemia, with SK-MEL-2 melanoma, with SK-MEL-28 melanoma and in the test with SNB-75 CNS was above 100 µM in each case. For the same compound, the concentration for total growth inhibition (TGI) in the test on U251 CNS was above 100 µM.

Turning to `Cc1nc(-n2[nH]c(C)c(CCO)c2=O)[nH]c(=O)c1CCO`, the TGI in the test on A549 NSCLC, in the test on DU-145 prostate, in the test with HOP-62 NSCLC, with HS 578T breast, with IGROV1 ovarian and with M14 melanoma was above 100 µM throughout. The total growth inhibition concentration (TGI) with MCF7 breast, in the test on MDA-MB-435, with MDA-N, in the test on NCI/ADR-RES ovarian, in the test with OVCAR-4 ovarian and with OVCAR-8 ovarian was above 100 µM each time. Besides, the TGI in the test with PC-3 prostate, in the test with RPMI-8226 leukemia, with SK-MEL-28 melanoma, in the test on SNB-75 CNS, in the test with SR leukemia and in the test with U251 CNS was above 100 µM in each case.

As to `CC1=C(O)C(=O)C[C@]2(C)[C@H]3CC=C4[C@@H]5CC(C)(C)CC[C@@H]5C(=O)[C@H](O)[C@@]4(C)[C@]3(C)CC[C@@H]12`, the TGI in the test on A549 NSCLC, in the test with DU-145 prostate, with HOP-62 NSCLC, in the test with HS 578T breast, in the test with IGROV1 ovarian and with M14 melanoma was above 50 µM in each case. Also, the TGI in the test on MCF7 breast, in the test on MDA-MB-435, with MDA-N, in the test with NCI/ADR-RES ovarian, with OVCAR-4 ovarian and in the test with OVCAR-5 ovarian was above 50 µM throughout. Besides, the TGI with OVCAR-8 ovarian, in the test with PC-3 prostate, in the test with RPMI-8226 leukemia, in the test on SK-MEL-2 melanoma, in the test with SK-MEL-28 melanoma and in the test on SNB-75 CNS was above 50 µM in each case. The same compound registered a TGI in the test with U251 CNS above 50 µM.

As to `Cc1cnc(/N=c2\sc(C)cn2-c2ncc(C)s2)s1`, the TGI with A549 NSCLC, in the test on DU-145 prostate, with HOP-62 NSCLC, with HS 578T breast, with IGROV1 ovarian and in the test with M14 melanoma was above 100 µM throughout. Further, the TGI in the test on MCF7 breast, with MDA-MB-435, in the test with MDA-N, with NCI/ADR-RES ovarian, in the test on OVCAR-4 ovarian and with OVCAR-5 ovarian was above 100 µM each time. The TGI with OVCAR-8 ovarian, with PC-3 prostate, in the test on RPMI-8226 leukemia, in the test with SK-MEL-28 melanoma, with SNB-75 CNS and with SR leukemia was above 100 µM each time. In addition, the TGI in the test with U251 CNS was above 100 µM.

Consider `COc1ccc(C2C3CCc4ccccc4C3=NN2S(=O)(=O)c2ccc(Cl)cc2)cc1` (stereo not drawn), for which the TGI in the test with A549 NSCLC was above 100 µM; in the test on DU-145 prostate, above 100 µM; in the test with HOP-62 NSCLC it was above 100 µM; with HS 578T breast it was above 100 µM; in the test on IGROV1 ovarian, 52.9 µM; in the test with M14 melanoma, above 100 µM. The TGI is 34.8 µM with MCF7 breast; 4.62 µM with MDA-MB-435; 9.19 µM in the test with MDA-N; 21.9 µM with NCI/ADR-RES ovarian; above 100 µM in the test on OVCAR-4 ovarian; above 100 µM with OVCAR-5 ovarian. Besides, the TGI in the test with OVCAR-8 ovarian was above 100 µM; with PC-3 prostate, above 100 µM; with RPMI-8226 leukemia it was 51.3 µM; in the test with SK-MEL-2 melanoma, above 100 µM; with SR leukemia, 25.4 µM; in the test with U251 CNS it was 60.8 µM.

Regarding `COc1cc2c(cc1OC)CC(=O)c1cc(OC)c(OC)cc1/C=C\2`, the TGI in the test with A549 NSCLC, in the test on DU-145 prostate, in the test with HOP-62 NSCLC, in the test with HS 578T breast, in the test on IGROV1 ovarian and in the test on M14 melanoma was above 12.5 µM each time. Also, the TGI in the test on MCF7 breast is above 12.5 µM; in the test on MDA-MB-435 it was above 12.5 µM; in the test on MDA-N, 7.36 µM; in the test on NCI/ADR-RES ovarian it was above 12.5 µM; with OVCAR-4 ovarian it was above 12.5 µM; in the test on OVCAR-5 ovarian, above 12.5 µM. Further, the TGI in the test on OVCAR-8 ovarian, in the test on PC-3 prostate, with RPMI-8226 leukemia, with SK-MEL-2 melanoma, with SK-MEL-28 melanoma and in the test on SNB-75 CNS was above 12.5 µM in each case. The TGI in the test on U251 CNS was above 12.5 µM.

Consider `N#CCCSC1SC(=C2SC3=C(SCCS3)S2)SC1SCCC#N` (stereo not drawn), for which the TGI in the test with A549 NSCLC, in the test on DU-145 prostate, in the test on HOP-62 NSCLC, in the test on HS 578T breast, in the test with IGROV1 ovarian and in the test on M14 melanoma was above 100 µM in each case. For the same compound, the TGI in the test with MCF7 breast, with MDA-MB-435, in the test on MDA-N, in the test with NCI/ADR-RES ovarian, in the test with OVCAR-4 ovarian and with OVCAR-5 ovarian was above 100 µM in each case. For the same compound, the TGI with OVCAR-8 ovarian, with PC-3 prostate, in the test on SK-MEL-2 melanoma, in the test on SK-MEL-28 melanoma, in the test with SR leukemia and with U251 CNS was above 100 µM throughout.
